Reference: patent US11766397B2, “Bioactive compositions comprising ficus serum fracton and methods to reduce the appearance of skin hyperpigmentation” (ISP INVESTMENTS LLC, priority 2010, dated 2023)

System: facial hyperpigmented spots in humans
Assay: In vivo testing for hyperpigmented spot reduction and melanin evenness (split face, vehicle controlled)
Parameters: species or system human
Settings: for Melanin Evenness vs Vehicle / NC2SAF (spot area fraction) vs Vehicle: twice daily facial application
Method: A 9 week in-vivo study was conducted using a round robin, vehicle controlled, split face design including a 1 week normalization period with 270 subjects. The 270 subjects were screened according to inclusion/exclusion criteria which included the following:
• Has hyperpigmented spots around cheek and/or periorbital area on both sides of the face. • Has at least 1 hyperpigmented spot of 8-10 mm diameter, 4 spots of 4-6 mm or 10 spots of 2-3 mm diameter (sun spots., freckles, or melasma spots) or • equivalent spot area in the cheek area on each side of their face. • Is willing to refrain from sun exposure by using supplied UV lotion and physical UV blocks, such as a hat, to avoid facial sunburn, tanning or wind burn.
• Has been diagnosed as having atopy, eczema, psoriasis, or other chronic skin diseases. • Has obvious signs of facial skin disease (e.g., more than 5 pimples, areas of red scaling skin, superficial thin blood vessels, etc.). • Has significant areas of discoloration or scarring on the face. • Has more than 3 prominent moles (<3 mm) on the face.
Two hundred and seventy subjects were recruited for the study. Approximately 60 subjects dropped during the course of the study. Each subject received two coded test formulations for twice daily application to each half of the face. Images of the facial treatment sites were captured at baseline (week 0), and after 4 and 8 weeks of treatment and analyzed for changes to skin color and spot size and color. The product formulations included a vehicle control, the Vehicle+0.55% FSF, and the vehicle+5% vitamin B3 compound (Niacinamide).
Noncontact spectrophotometric intracutaneous analysis (SiaScopy, Astron Clinica, UK) was used to collect and analyze the subject images. The method used a digital camera (e.g., Fuji S2 digital SLR) as a […] and a flash lighting source (e.g., Sigma Super flash light source) to recover facial chromophore information. A cross polarized filter was placed in front of the camera and the lighting source to eliminate specular reflection.
Chromophore mapping of the concentration and distribution of eumelanin (melanin) and oxyhaemoglobin produces grayscale concentration maps of each of these chromophores. Image analysis software, such as Optimas 6.5, can be used to select a region of interest in each chromophore map from which mean grayscale values and spot area fraction are calculated. Spot area fraction refers to total area occupied by melanin spots as a percentage of the whole region of interest. A description of one type of chromophore mapping can be found in EP 1,810,614 and “The Distribution of Melanin in Skin Determined In Vivo”, British Journal of Dermatology, 2007, pp 620-628.

## NC(=O)c1cccnc1 [Niacinamide]
4 weeks
  Melanin Evenness vs Vehicle: ns (ns = not significant (p > 0.3))
  NC2SAF (spot area fraction) vs Vehicle: as
8 weeks
  Melanin Evenness vs Vehicle: sig (sig = significant (p < 0.1))
  NC2SAF (spot area fraction) vs Vehicle: sig (sig = significant (p < 0.1))
After 8 weeks
  reducing hyperpigmented spots: best performer
